Reference: patent publication US20050152995A1, “Methods and compositions for promoting axon regeneration and cell replacement therapy” (priority 2003, published 2005)
Read-outs that look alike come from different tables or passages of the source.

Key:
Bcl-2 = tested on: Bcl-2
Description: (§1) Retinal histology and immunohistochemistry: The eyeball and optic nerve were dissected out, fixed in 4% paraformaldehyde for 1 hr, cryoprotected and embedded in O.T.C. The tissues were then cryosectioned at 12 μm and subjected to cresyl violet staining or immunohistochemistry. For immunofluorescence labeling, tissue sections were reacted with Cy-3 conjugated mouse anti-GFAP (1:1000, Sigma) or rabbit anti-GAP-43 (1:200, Chemicon). The signal of GAP-43 was then visualized by FITC-conjugated goat anti-rabbit IgG (1:250, Vector Lab.). To detect the expression of Bcl-2 protein, the eyeballs were dissected out and embedded without fixation. Before immunostaining, retinal sections were fixed with acetone that was stored at −20° C. for 15 min and incubated with Bcl-2 antibody (1:50, Transduction lab) followed by reaction with biotinylated anti-mouse IgG (1:100, Vector Lab.) and DTAF-conjugated Streptavidin (1:100, Jackson Lab). The sections were then counter-stained with DAPI (1:150, Sigma) to reveal cell nuclei before they were mounted with Vectashield (Vector Lab) and examined under epifluorescence microscope.

[1] = tested on: severed optic nerve (astrocytes, RGC axons); format: in vivo, mouse
Method: To evaluate the effects of lithium used simultaneously with astrotoxin in optic nerve regeneration in adult mice, an on optic nerve crush was performed in adult mice. Immediately after the optic nerve crush, a piece of gelform soaked in astrotoxin solution or PBS was placed against the crush site. Thereafter, mice were divided into two groups: one group received a diet containing lithium, and the other received a control diet.
Mice were sacrificed on day 8 after the nerve crush to examine axon regeneration.
Surgical procedure: All experimental procedures and use of animals were approved by Animal Care and Use Committee in the Schepens Eye Research Institute and adhered to the ARVO statement for the Use of Animals in Ophthalmic and Vision Research. Adult C57BL/6J mice were anesthetized with a mixture of ketamine (12.5 mg/ml, Sigma) and xylazine (2.5 mg/ml, Sigma) (5 μ/g). Optic nerve was exposed intraorbitally and crushed for 3 seconds using fine forceps. Immediately after nerve crush, a piece of gelfoam soaked with L-α-aminoadipate (10 mg/ml; Sigma) was placed against the crushed site. Gelfoam soaked with phosphate buffered saline (PBS) was used as control. To ensure continued delivery of astrotoxin, the gelfoam was replaced every 3 days post-injury (DPI). Following recovery from the optic nerve surgery, mice were divided into two groups: one group received a diet supplemented with lithium ([…], Bio-Serv), and the other group received a control diet. Mice were sacrificed on 8 DPI, and the mouse serum was collected to determine serum lithium concentration (Medtox Laboratories Inc).
as §1
Quantitation of Axon Regeneration: Following staining with anti-GAP-43 antibody, the longest distance of axon regeneration axon was measured from the crushed site in optic nerve sections. At least 4 sections were sampled from each optic nerve, and the measured lengths of regenerating axons were averaged. Statistical significance was determined by One-way ANOVA and Tukey-Kramer multiple comparison tests.

[2] = tested on: retinal ganglion cells (RGCs)
Method: The neuroprotective effect of lithium-containing diet on the survival of fluorogold (FG)-labeled RGCs was assessed.
After sacrificing, whole-mount retinas were prepared. At least 12 non-overlapping areas of the retina were selected randomly and photographed. Surviving RGCs that were labeled with FluoroGold were counted, and the density of survival RGCs was determined.

[3] = mice on lithium-containing diet, n=9, 8 DPI
Method: To determine whether lithium induces the expression of Bcl-2 in adult retinal neurons in vivo, we fed mice with food chow containing lithium.
Adult C57BL/6J mice were anesthetized with a mixture of ketamine (12.5 mg/ml, Sigma) and xylazine (2.5 mg/ml, Sigma) (5 μ/g). […] Mice were sacrificed on 8 DPI, and the mouse serum was collected to determine serum lithium concentration (Medtox Laboratories Inc).

[4] = tested on: inner limiting membrane (ILM) of the retina; assay: Retinal transplantation into collagenase-treated wild-type retinas; format: in vivo, mouse; conditions: collagenase 100 U/ml, n=4
Method: To distinguish implanted cells and their cellular processes from the host environment, we used retinas from mice expressing an enhanced green fluorescent protein (EGFP) transgene driven by a chicken b-actin promoter and cytomegalovirus enhancer (24′). Suspensions of retinal cells from postnatal day 0 (P0) EGFP mice were injected into the subretinal space of adult wild-type or GFAP−/−Vim−/− hosts. […] To confirm that this failure of neural integration into the wild-type hosts was not a result of the site of transplantation, we injected cells into the vitreous cavity (n=4) (FIG. 6B). […] Few neurons migrated and extended neurites into the damaged retinal area but not beyond (FIG. 1B).
To exclude the possibility that this change in the property of the ILM in GFAP−/−Vim−/− mice affected the fate of retinal transplants, we treated wild-type retinas with collagenase (100 U/ml) to break down the ILM (n=4). By comparing with untreated wild-type hosts (n=3), we found no difference in graft cell migration and neurite extension into the retinas of collagenase treated and untreated mice (data not shown).

[5] = tested on: severed optic nerve (astrocytes, RGC axons); format: in vivo, mouse; conditions: for axonal regeneration after optic nerve crush: n=5
Method: Optic nerve crush was performed in Bcl-2tg (14) and wild-type littermate mouse pups, prior to the knowledge of genotypes. Regeneration was assessed and corroborated by three labeling methods: anterograde axon tracing, immunofluorescent staining, and retrograde labeling of RGCs that regenerated their axons. […].
To assess the functional significance of astrocyte maturation in optic nerve regeneration, we treated adult (2-3-month-old) wild-type and Bcl-2tg mice with astrotoxin (L-alpha-aminoadipate), which selectively kills astrocytes and has minimal effects on surrounding neurons and myelin (25, 26). Immediately after optic nerve crush, gelform soaked in L-alpha-aminoadipate solution (10 mg/ml in PBS, Sigma) or PBS was placed against the crush site. […] Regenerating axons extended exclusively into the GFAP-negative area and stopped abruptly where GFAP staining reappeared (FIG. 4B, D).
To quantify axonal regeneration, we used electron microscopy to examine optic nerve sections of adult wild-type and Bcl-2tg mice treated with astrotoxin or PBS. Degenerating myelin and tissue debris were found in sections of all groups (FIG. 4I, J). In treated Bcl-2tg mice (n=5), a large number of regenerating axons were seen 0.5 mm posterior to the crush site, an area devoid of astrocytes and their cellular processes (FIG. 4J). […] In contrast, in other three groups, few axons were present in optic nerve sections if they were collected at 0.5 mm posterior to the crush (n=3/group). Regenerating axons were 20-fold more abundant in astrotoxin-treated Bcl-2tg mice than in PBS-treated wild-type mice (P<0.001) (FIG. 4K). Thus, elimination of mature astrocytes promoted robust optic nerve regeneration in adult Bcl-2tg mice.

[6] = adult wild-type mice, day 8 after nerve crush

O=C([O-])[O-].[Li+].[Li+] [lithium, lithium carbonate]
Bcl-2 mRNA in retina (Bcl-2; RT-PCR, lithium-containing diet vs regular diet): strong induction
Bcl-2 protein expression in retina (Bcl-2; immunostaining, lithium-containing diet): detected in the ganglion cell layer
GFAP expression along the crushed optic nerve ([1]; mouse, in vivo): detected along the entire nerve
axon regeneration (GAP-43 labeling) ([1]; mouse, in vivo): no sign of regeneration
length of regenerating axons extending from the crushed site ([1]; mouse, in vivo): 80 μm
number of surviving RGCs ([2]; following optic nerve crush, not significant vs control (P>0.05)): 404 /mm^2
density of FG-labeled RGCs ([2]; normal retina): 2134 /mm^2
serum concentration of lithium [3]: 0.80±0.15 mEq/l

collagenase
graft cell migration and neurite extension into the retina vs untreated hosts [4]: no difference

N[C@@H](CCCC(=O)O)C(=O)O [astrotoxin, L-alpha-aminoadipate]
abundance of regenerating axons relative to PBS-treated wild-type mice ([5]; adult Bcl-2tg mice, electron microscopy, 0.5 mm posterior to the crush, P<0.001): 20 fold
axonal regeneration after optic nerve crush ([5]; adult Bcl-2tg mice): robust regeneration
GFAP immunofluorescence staining in the optic nerve ([5]; adult wild-type and Bcl-2tg mice, 10 mg/ml in PBS on gelform at crush site): created a GFAP-negative area
effect on myelin and neuronal processes ([5]; adult wild-type and Bcl-2tg mice, immunofluorescence staining): no effect
axonal regeneration after optic nerve crush ([5]; adult wild-type mice): a few axons sprouted past the lesion site
GFAP expression along the crushed optic nerve [1, 6]: a region devoid of immunorective astrocytes (GFAP-negative) was generated
axon regeneration (GAP-43 labeling) [1, 6]: no sign of regeneration
length of regenerating axons extending from the crushed site ([1]; anti-GAP-43 immunostaining, day 8 after nerve crush): 50 μm
